Assays:
[1] = tested on: mitochondria in kidney cells of diabetic rats; test: ROS measurement by DCFH-DA assay in diabetic rats; type: in vivo, Sprague–Dawley rats; conditions: streptozotocin diabetic rats, treated 4 weeks
Description: (§1) Diabetes was induced in mice by injecting streptozotocin purchased from Sigma (USA). Streptozotocin was dissolved in a citrate buffer (pH 6.5, 0.1 M) and injected at a dose of 65 mg/kg intraperitoneally. Blood glucose was measured before the test and one week after streptozotocin injection, and mice with blood glucose above […] were considered diabetic. The calycosin or calycosin-loaded nanoliposomes were dissolved in PBS until it was ready to be injected, and the mice received […] of calycosin-loaded nanoliposomes for 4 weeks after becoming diabetic. Vitamin E (100 mg/kg) was also used as a positive control group. Animals were randomly divided in 5 groups which each group consisted of 6 male mice. […] Protein concentration was measured as standard using bovine serum albumin (BSA). […] Then, the fluorescence intensity of the samples was read at λex/λem of 485 nm/530 nm using a spectrofluorometer (CLARIOstar, Offenburg, Germany).

[2] = tested on: mitochondria in kidney cells of diabetic rats; test: Lipid peroxidation (MDA) by TBARS analysis in diabetic rats; type: in vivo, Sprague–Dawley rats; conditions: streptozotocin diabetic rats, treated 4 weeks
[3] = In vitro drug release in dialysis media (simulated gastric, intestinal and physiological fluid); type: physicochemical
Description: The EE and DL of the prepared calycosin-loaded nanoliposomes were determined by the dialysis method described previously. Briefly, 700 μL of the prepared calycosin-loaded nanoliposomes solution was added into a dialysis bag (cutoff of 8000), followed by putting into 20 mL of dialysis medium (PBS, pH 7.4). The samples were then shacked (10 h), and centrifuged (3000 rpm, 2 min) to determine the free calycosin concentration in the supernatant. Also, 500 µL of the calycosin-loaded nanoliposomes were added by 1500 μL of methanol, vortexed ([…]), sonicated (5 min), centrifuged (3000 rpm, 2 min) to calculate the total calycosin concentration (C0). 20 mL of the prepared calycosin-loaded nanoliposomes powder (V0) was weighted to calculate the solid powder mass (W0). 25 µl of the sample was injected into a HPLC system containing Phenomenex ODS analytical column (150 mm × 4.6 mm, 5 μm) with a guard column (30 mm × 10 mm, 3 μm) at 40 °C. The mobile phase was a mixture of methanol: double distilled water as follows:0.05 M KH2PO4 = 40:60:5, pH 4.0, with a flow rate of 1.0 ml/min [37]. The simulated gastric fluid was 0.1 mol/L HCl (100 mM, pH 1.2) supplemented with 0.5% Tween-80, the simulated intestinal fluid was PBS buffer (25 mM, pH 6.9) containing 0.5% Tween-80, and the simulated physiological buffer was PBS (150 mM, pH 7.4) containing 0.5% Tween-80. The cumulative drug release was then determined using the following equation [35]: Cumulative release rate%=[V1×(C1⋯+Ci1)+V2×Ci]/Vo×Co×100 where, V1 is the sampling amount, V2 is the volume of the dialysis medium, C1–Ci is the concentration of calycosin at each time point, and V0 and C0 are the volume and concentration of calycosin-loaded nanoliposomes added to the dialysis bag. Stability of calycosin-loaded nanoliposomes was explored for about two months at 37 °C by using particle size and encapsulation efficiency of the reconstituted nanoliposome.

[4] = Dissolution study in PBS pH 7.4; type: physicochemical
Description: The dissolution studies were performed based on the previous study. Briefly, the dissolution medium (pH 7.4, PBS, 900 ml) under stirring (100 rpm) was added by calycosin-loaded nanoliposomes which is equivalent to 50 mg of drug and at different time intervals, 15 mL samples were removed, replaced, filtrated ([…]), and dissolved in mixed solvent (methanol: distilled water = 5.5:3.5, v/v). Finally, 25 µl of the sample was injected into a HPLC system. The rest of the setup was similar to the above-mentioned explanations.

[5] = Pharmacokinetics in rats after oral administration; type: in vivo; conditions: male, Sprague-Dawley, rat, single dose 30 mg/kg calycosin, plasma
Description: […] male Sprague–Dawley rats were randomly divided into three groups ([…]) as control, treated with calycosin, and treated with calycosin-loaded nanoliposomes (dissolved in 1% ethanol). The doses of calycoin groups were 30 mg/kg for oral administration. After the rats were intragastrically administered with free or Nano-formulated calycosin, the 0.5 mL blood was taken from the fundus venous plexus of each rat at different time intervals. The blood samples were then centrifuged (4000 rpm, 10 min), and the plasma was removed and to stored − 80 °C. The content of the drug in the plasma sample was then calculated by the established LC-MS/MS method based on the previous report.

[6] = tested on: mitochondria in kidney cells of diabetic rats; test: MTT assay of mitochondrial viability in diabetic rats; type: in vivo, Sprague–Dawley rats; conditions: streptozotocin diabetic rats, treated 4 weeks
Description: as §1, with “100 µl of mitochondrial supernatants were mixed by MTT stock solution (5 mg mL^−1) for 4 h, followed by removing” for “Then,”, “supernatants, addition of 150 μL DMSO for 5 min, and reading the absorbance” for “fluorescence intensity”, “samples” for “samples was read”, “570” for “λex/λem of 485 nm/530”, “microplate reader (BIO-RAD microplate reader-550).” for “spectrofluorometer (CLARIOstar, Offenburg, Germany).”

time of (almost) complete / 100% release ([3]; simulated gastric medium pH 1.2): ~20 h
cumulative release ([3]; simulated gastric medium pH 1.2, 1 h): about 32%
time of (almost) complete / 100% release ([3]; simulated intestinal fluid pH 6.9): ~100 h
cumulative release ([3]; simulated intestinal fluid pH 6.9, 1 h): about 32%
cumulative release ([3]; simulated intestinal fluid pH 6.9, 20 h): 90%
time of (almost) complete / 100% release ([3]; simulated physiological fluid pH 7.4): ~120 h
cumulative release ([3]; simulated physiological fluid pH 7.4, 1 h): about 7%
cumulative release ([3]; simulated physiological fluid pH 7.4, 20 h): 55%
dissolution rate [4]: low
AUC(0-inf) [5]: 421 ± 73.3 ng·h/mL
AUC(0-t) [5]: 409 ± 67.3 ng·h/mL
Cmax [5]: 298 ± 35.8 ng/mL
Tmax [5]: 0.19 ± 0.017 h
half-life [5]: 6.98 ± 0.96 h
MRT last ([5]; read-out: MRT0−t): 8.68 ± 1.27 h
Structure (SMILES): COc1ccc(-c2coc3cc(O)ccc3c2=O)cc1O [calycosin]
generation of ROS (DCF fluorescence intensity) [1]: potentially reduced the generation of ROS
MDA level (lipid peroxidation) [2]: remarkable decrease in lipid peroxidation
mitochondrial viability (MTT) in comparison with diabetic rats [6]: significant recovery of mitochondrial viability
